Data as given in ChEMBL document CHEMBL1139580, “Pyrrolo[1,2-a][1,4]benzodiazepine: a novel class of non-azole anti-dermatophyte anti-fungal agents” (Bioorg Med Chem Lett, 2005).
Values after ≈ are worked out from the molar mass of the structure shown.

Tests used:
Candida parapsilosis = assay: Minimum inhibitory concentration against Candida B66126 parapsilosis by microdilution method; assay type: functional; conditions: Lodderomyces parapsilosis
Aspergillus fumigatus = assay: Minimum inhibitory concentration against Aspergillus fumigatus B42928 by microdilution method; assay type: functional
Cryptococcus neoformans = assay: Minimum inhibitory concentration against Cryptococcus neoformans B66663 by microdilution method; assay type: functional
[1] = Minimum inhibitory concentration against Trichophyton mentagrophytes B70554 by microdilution method; assay type: functional; conditions: Trichophyton benhamiae
[2] = Minimum inhibitory concentration against Sporothrix schenckii B64284 by microdilution method; assay type: functional
[3] = Minimum inhibitory concentration against Trichophyton rubrum B68183 by microdilution method; assay type: functional
[4] = Minimum inhibitory concentration against Microsporum canis B68128 by microdilution method; assay type: functional
[5] = Bioavailability in plasma of Microsporum canis infected guinea pig after […] administration of 2 mg/kg dose; assay type: ADME, organism-based, Cavia porcellus; conditions: read-out: Activity

Molecule `CCc1ccc(C2NCc3c(F)cccc3-n3cccc32)cc1` (stereo not given) has an MIC (Candida parapsilosis) of 10 µM (≈ 3.06 µg/mL), an MIC (Aspergillus fumigatus) of 10 µM (≈ 3.06 µg/mL) and an MIC (Cryptococcus neoformans) of 100 µM (≈ 30.6 µg/mL). For the same molecule, the MIC [1] was 1 µM (≈ 0.306 µg/mL), the MIC [2] was 100 µM (≈ 30.6 µg/mL) and the MIC [3] was 0.32 µM (≈ 0.098 µg/mL). For the same molecule, the MIC [4] was 3.2 µM (≈ 0.98 µg/mL).
For `CCc1ccc(C2NCc3c(Cl)cccc3-n3cccc32)cc1` (stereo not given), the MIC (Candida parapsilosis) was 1 µM (≈ 0.323 µg/mL), the MIC (Aspergillus fumigatus) was 3.2 µM (≈ 1.03 µg/mL) and the MIC (Cryptococcus neoformans) was 100 µM (≈ 32.3 µg/mL). It also gave an MIC [1] of 0.1 µM (≈ 0.0323 µg/mL), an MIC [2] of 100 µM (≈ 32.3 µg/mL) and an MIC [3] of 0.03 µM (≈ 0.00969 µg/mL). For the same molecule, the MIC [4] was 0.32 µM (≈ 0.103 µg/mL).
Work on `CCc1ccc(C2=NCc3ccc(Cl)cc3-n3cccc32)cc1` yielded an MIC (Candida parapsilosis) of 1 µM (≈ 0.321 µg/mL), an MIC (Aspergillus fumigatus) of 0.32 µM (≈ 0.103 µg/mL) and an MIC (Cryptococcus neoformans) of 1 µM (≈ 0.321 µg/mL). It also gave an MIC [1] of 0.1 µM (≈ 0.0321 µg/mL), an MIC [2] of 6.6 µM (≈ 2.12 µg/mL) and an MIC [3] of 0.065 µM (≈ 0.0209 µg/mL). For the same molecule, the MIC [4] was 0.32 µM (≈ 0.103 µg/mL).
`CCc1ccc([C@H]2NCc3c(Cl)cccc3-n3cccc32)cc1` gave a bioavailability [5] of under 5%, an MIC (Candida parapsilosis) of 0.32 µM (≈ 0.103 µg/mL) and an MIC (Aspergillus fumigatus) of 1 µM (≈ 0.323 µg/mL). It also gave an MIC (Cryptococcus neoformans) of 100 µM (≈ 32.3 µg/mL), an MIC [1] of 0.01 µM (≈ 0.00323 µg/mL) and an MIC [2] of 100 µM (≈ 32.3 µg/mL). It also gave an MIC [3] of 0.03 µM (≈ 0.00969 µg/mL) and an MIC [4] of 0.32 µM (≈ 0.103 µg/mL).
`CCc1ccc(C2NCc3c(C)cccc3-n3cccc32)cc1` (stereo not given) showed an MIC (Candida parapsilosis) of 55 µM (≈ 16.6 µg/mL), an MIC (Aspergillus fumigatus) of 100 µM (≈ 30.2 µg/mL) and an MIC (Cryptococcus neoformans) of 100 µM (≈ 30.2 µg/mL). The MIC [1] was 1 µM (≈ 0.302 µg/mL), the MIC [2] was 100 µM (≈ 30.2 µg/mL) and the MIC [3] was 0.21 µM (≈ 0.0635 µg/mL). For the same molecule, the MIC [4] was 2.1 µM (≈ 0.635 µg/mL).
With `Cc1ccc(C2NCc3c(Cl)cccc3-n3cccc32)cc1` (stereo not given) the MIC (Candida parapsilosis) was 100 µM (≈ 30.9 µg/mL), the MIC (Aspergillus fumigatus) was 100 µM (≈ 30.9 µg/mL) and the MIC (Cryptococcus neoformans) was 100 µM (≈ 30.9 µg/mL). For the same molecule, the MIC [1] was 2.1 µM (≈ 0.649 µg/mL), the MIC [2] was 100 µM (≈ 30.9 µg/mL) and the MIC [3] was 0.1 µM (≈ 0.0309 µg/mL). The MIC [4] was 2.1 µM (≈ 0.649 µg/mL).
Molecule `CCc1ccc(C2c3cccn3-c3cccc(Cl)c3CN2C)cc1` (stereo not given) has an MIC (Candida parapsilosis) of 100 µM (≈ 33.7 µg/mL), an MIC (Aspergillus fumigatus) of 100 µM (≈ 33.7 µg/mL) and an MIC (Cryptococcus neoformans) of 100 µM (≈ 33.7 µg/mL). For the same molecule, the MIC [1] was 55 µM (≈ 18.5 µg/mL), the MIC [2] was 100 µM (≈ 33.7 µg/mL) and the MIC [3] was 51.6 µM (≈ 17.4 µg/mL). It also gave an MIC [4] of 100 µM (≈ 33.7 µg/mL).
`Clc1cccc2c1CNC(c1ccccc1)c1cccn1-2` (stereo not given) gave an MIC (Candida parapsilosis) of 100 µM (≈ 29.5 µg/mL), an MIC (Aspergillus fumigatus) of 100 µM (≈ 29.5 µg/mL) and an MIC (Cryptococcus neoformans) of 100 µM (≈ 29.5 µg/mL). The MIC [1] was 100 µM (≈ 29.5 µg/mL), the MIC [2] was 100 µM (≈ 29.5 µg/mL) and the MIC [3] was 0.32 µM (≈ 0.0943 µg/mL). For the same molecule, the MIC [4] was 100 µM (≈ 29.5 µg/mL).
Molecule `CCc1ccc(C2NCc3cccc(Cl)c3-n3cccc32)cc1` (stereo not given) has an MIC (Candida parapsilosis) of 100 µM (≈ 32.3 µg/mL), an MIC (Aspergillus fumigatus) of 100 µM (≈ 32.3 µg/mL) and an MIC (Cryptococcus neoformans) of 100 µM (≈ 32.3 µg/mL). The MIC [1] was 3.2 µM (≈ 1.03 µg/mL), the MIC [2] was 100 µM (≈ 32.3 µg/mL) and the MIC [3] was 1 µM (≈ 0.323 µg/mL). The MIC [4] was 3.2 µM (≈ 1.03 µg/mL).
Molecule `CCc1ccccc1C1NCc2c(Cl)cccc2-n2cccc21` (stereo not given) has an MIC (Candida parapsilosis) of 100 µM (≈ 32.3 µg/mL), an MIC (Aspergillus fumigatus) of 100 µM (≈ 32.3 µg/mL) and an MIC (Cryptococcus neoformans) of 100 µM (≈ 32.3 µg/mL). The MIC [1] was 100 µM (≈ 32.3 µg/mL), the MIC [2] was 100 µM (≈ 32.3 µg/mL) and the MIC [3] was 10 µM (≈ 3.23 µg/mL). For the same molecule, the MIC [4] was 100 µM (≈ 32.3 µg/mL).
`CC(C)(C)c1ccc(C2NCc3c(Cl)cccc3-n3cccc32)cc1` (stereo not given) showed an MIC (Candida parapsilosis) of 55 µM (≈ 19.3 µg/mL), an MIC (Aspergillus fumigatus) of 100 µM (≈ 35.1 µg/mL) and an MIC (Cryptococcus neoformans) of 100 µM (≈ 35.1 µg/mL). The MIC [1] was 1 µM (≈ 0.351 µg/mL), the MIC [2] was 55 µM (≈ 19.3 µg/mL) and the MIC [3] was 1 µM (≈ 0.351 µg/mL). For the same molecule, the MIC [4] was 0.66 µM (≈ 0.232 µg/mL).
In the case of `CCc1ccc(C2NCc3c(OC)cccc3-n3cccc32)cc1` (stereo not given), the MIC (Candida parapsilosis) is reported as 100 µM (≈ 31.8 µg/mL), the MIC (Aspergillus fumigatus) is reported as 100 µM (≈ 31.8 µg/mL) and the MIC (Cryptococcus neoformans) is reported as 100 µM (≈ 31.8 µg/mL). The MIC [1] was 10 µM (≈ 3.18 µg/mL), the MIC [2] was 100 µM (≈ 31.8 µg/mL) and the MIC [3] was 3.2 µM (≈ 1.02 µg/mL). The MIC [4] was 10 µM (≈ 3.18 µg/mL).
